Experimental data as given in PubChem BioAssay (NCI).
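Method: 48-hour compound exposure of cells in 96-well plates, five concentrations, linear interpolation of endpoints. The concentration for 50% growth inhibition is given as GI50. TGI marks complete inhibition of growth.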

Columns and labels:
Test in all cases: DTP human tumour cell line panel, 48 h
[1] = test system: NCI-H460 lung
[2] = test system: SW-620 colon
[3] = test system: HT29 colon
[4] = test system: ACHN renal
[5] = test system: NCI-H23 lung
[6] = test system: K-562 leukemia
[7] = test system: MCF7 breast
[8] = test system: NCI-H226 lung
[9] = test system: TK-10 renal
[10] = test system: KM12 colon

Compound | GI50 [1] [µM] | TGI [1] [µM] | GI50 [2] [µM] | TGI [2] [µM] | GI50 [3] [µM] | TGI [3] [µM] | GI50 [4] [µM] | TGI [4] [µM] | GI50 [5] [µM] | TGI [5] [µM] | GI50 [6] [µM] | TGI [6] [µM] | GI50 [7] [µM] | TGI [7] [µM] | GI50 [8] [µM] | TGI [8] [µM] | GI50 [9] [µM] | TGI [9] [µM] | GI50 [10] [µM] | TGI [10] [µM]
OC(COc1cccc2ccccc12)CN1CCN(c2ccccc2Cl)CC1 (stereo not given) | 12.8 | 29 | 10.9 | 27.9 | 3.3 | 12.5 | 13.9 | 27.5 | 13.3 | 29.8 | 4.58 | 17.6 | 14.7 | 28.3 | 15 | 31.6 | 5.58 | 17.1 | 11.8 | 25.9
O=C(CCl)Nc1cc(O)c2c(c1)C(=O)c1cccc(O)c1C2=O | 1.79 | 3.92 | 1.1 | 3.95 | 1.99 | 3.89 | 1.55 | 2.98 | 1.13 | 3.45 | 0.353 | 4.22 | 0.725 | 2.61 | 1.31 | 4.93 | 1.97 | 3.39 | 1.74 | 3.4
COc1ccc2c(c1)CC[C@@H]1[C@@H]2CC[C@]2(C)C=C(/C=C/C(=O)c3ccccc3)C[C@@H]12 | 17.2 | 35.4 | 15.4 | 30.2 | 17 | 35.7 | 16.4 | 31.1 | 15.4 | 30.8 | 18.5 | 46.4 | 18.6 | 36.3 | 17.1 | 33.6 | 21.3 | 39.3 | 17.7 | 39.6
C1CC[N-]CC1.CC(=N\O)/C(C)=N/O.CC(=N\O)/C(C)=N/O.[CH2-]CCN1CCOCC1.[Co+2] | > 100 | > 100 | > 100 | > 100 | > 100 | > 100 | > 100 | > 100 |  |  | > 100 | > 100 | > 100 | > 100 | > 100 | > 100 | > 100 | > 100 | > 100 | > 100
COc1cc(/C=N\O)nc(-c2ccccn2)c1 |  | > 100 |  | > 100 |  | > 100 |  | > 100 |  | > 100 |  | > 100 |  | > 100 |  |  |  | > 100 |  | > 100
Cc1cc(O)c(C(c2ccncc2)c2c(O)cc(C)[nH]c2=O)c(=O)[nH]1 |  | > 100 |  |  |  | > 100 |  | > 100 |  | > 100 |  | > 100 |  | > 100 |  |  |  | > 100 |  | > 100
O=C(c1ccccc1)C1C(C(=O)c2ccccc2)C(c2ccccc2)N(c2ccccc2)C1c1ccccc1 (stereo not given) |  | > 100 |  | > 100 |  |  |  | > 100 |  | > 100 |  | > 100 |  | > 100 |  | > 100 |  | > 100 |  | 
CCCCOc1ccc(/C=N/Nc2cc(C)nc3ccc(Cl)cc23)cc1 |  |  |  |  | 1.24 | 2.61 | 1.73 | 3.1 | 1.77 | 3.42 |  |  | 1.65 | 3.37 | 1.63 | 3.41 | 1.87 | 3.28 | 1.93 | 3.87
CC(=O)O[C@H]1C=CC23OC(=O)[C@]1(C)[C@H]2[C@H](C(=O)O)C12CC(=O)[C@@](CO)(CC[C@H]13)C2 |  | > 100 |  | > 100 |  | > 100 |  | > 100 |  | > 100 |  | > 100 |  |  |  | > 100 |  | > 100 |  | > 100
Cn1ncc(-c2ccc3c(=O)[nH]nc(CN)c3c2)c1-c1c(F)cc2ccccc2c1C#N | 3.67 | 14.6 | 3.05 | 15.1 | 3.34 | 14.5 | 4.07 | 16.5 |  |  | 3.41 | 38.3 | 1.52 | 12.6 | 7.69 | 24.3 | 10.7 | 24.1 | 5 | 17.4
COc1cc([C@@H]2c3cc4c(cc3C[C@H]3COC(=O)[C@@H]32)OCO4)cc2c1OCO2 |  | 0.33 |  | > 100 |  | < 0.01 |  | > 100 |  |  |  | > 40 |  | > 100 |  | < 0.01 |  | 3.48 |  | 3.2
CCOC(=O)/N=c1/nc(N(C)C)ss1 |  | > 100 |  | > 100 |  | > 100 |  | > 100 |  | > 100 |  | > 100 |  |  |  | > 100 |  | > 100 |  | > 100
NS(=O)(=O)c1ccc(NC(=O)COC(=O)c2cccc3c(=O)c4ccccc4[nH]c23)cc1 |  | > 100 |  | > 100 |  | > 100 |  | 71.9 |  | 60.5 |  | > 100 |  |  |  | 61.1 |  | 77.1 |  | > 85.5
COC(=O)C1C2CC3C(OC(=O)C31)C2OC(=O)[C@](OC)(c1ccccc1)C(F)(F)F (stereo not given in full) |  | > 100 |  | > 100 |  | > 100 |  | > 100 |  | > 100 |  | > 100 |  |  |  | > 100 |  | > 100 |  | > 100
CN(C)CC1CCCC/C1=N/OC(=O)c1ccc(Cl)c(Cl)c1 (stereo not given) |  | > 100 |  | > 100 |  | > 100 |  | > 100 |  | > 100 |  | > 100 |  |  |  | > 100 |  | > 100 |  | > 100
N#C/C(=C\c1ccccc1Br)C(=O)c1ccccc1 |  | > 100 |  | > 45.7 |  | > 100 |  | > 89.6 |  | > 62.2 |  | > 42.6 |  |  |  | > 78.2 |  | > 100 |  | > 100
O=[N+]([O-])c1cc(F)c2cccnc2c1O | 3.83 | 30.5 | 3.44 | > 100 | 4.55 | 20.7 | 6.06 | 79.7 | 7.73 | > 100 |  |  | 17.4 | 74.9 | 30.5 | > 100 | 14.9 | > 100 | 7.95 | > 100
COC(=O)Cc1nc2ccccc2o1 |  | > 100 |  | > 100 |  | > 100 |  | > 100 |  | > 100 |  | > 100 |  |  |  | > 100 |  | > 100 |  | > 100
